The source made the active and inactive calls. The rule behind the calls is not given here.
assay: inhibitors of TNFa-induced E-selectin expression, confirmation, imaging, retest plus dose response, cell count (AID 1288); settings: human endothelial cells, TNFa-induced E-selectin, imaging; at 2 µM; active compounds read high;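 note: 0% = stimulated vehicle wells and 100% = unstimulated vehicle wells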

SMILES	inhibition
CCC1Sc2ccccc2N(CC(=O)NCc2ccc3c(c2)OCO3)C1=O (stereo unspecified)	9.94% (inactive)
CCc1ccc(CC2S/C(=C(\C#N)C(C)=O)NC2=O)cc1 (stereo unspecified)	5.01% (inactive)
C=CCOc1c(Br)cc(CNn2nnnc2N)cc1OC	3.16% (inactive)
O=C(Nc1nc(-c2ccccc2)c(-c2ccccc2)s1)c1ccc(S(=O)(=O)N(CCCl)CCCl)cc1	-7.24% (inactive)
O=C(Nc1ccc(F)cc1)N1CCOCC1	29.5% (inactive)
CCn1nnnc1-c1ccc(OC)c(S(=O)(=O)NCc2ccccc2)c1	5.72% (inactive)
COc1ccccc1NC(=S)N(Cc1ccco1)Cc1cc2cccc(C)c2[nH]c1=O	30.6% (inactive)
O=C1C=C(c2ccccc2)C(O)(c2ccccc2)C1 (stereo unspecified)	-0.71% (inactive)
Clc1ccc(CNc2ccc3nnc(-c4ccccc4)n3n2)cc1	0.04% (inactive)
COc1ccccc1-c1nc(-c2ccc(C)nc2OC)no1	0.65% (inactive)
O=C(Nc1cccs1)Nc1c(F)c(F)c(F)c(F)c1F	1.63% (inactive)
Cc1sc(NC(=O)c2ccco2)c(CN2CCN(c3ccccn3)CC2)c1C	24.4% (inactive)
O=C(O)C1CCCN1S(=O)(=O)c1ccc(Br)s1 (stereo unspecified) (tested in a mixture with another compound)	6.99% (inactive)
CC1CN(C(=O)/C(C#N)=C2\N=C(NC(=O)c3ccccc3Cl)c3ccccc32)CC(C)O1 (stereo unspecified)	-0.23% (inactive)
COC(=O)c1cc2sc(Cl)cc2n1CC(=O)Nc1cccc(SC)c1	2.57% (inactive)
CCOc1cc(C(=O)NCCCn2ccnc2)cc(OCC)c1OCC	-4.2% (inactive)
Cc1oc2c(C)c(O)ccc2c(=O)c1-c1cnn(-c2ccccc2)c1	-7.41% (inactive)
CCC(C)c1ccccc1OCCCCN1CCCC1 (stereo unspecified)	-2.07% (inactive)
CC1(C)CC(=O)C2=C(C1)NCN(Cc1ccc3c(c1)OCO3)C2	3.18% (inactive)
COc1ccc(-c2n[nH]c(C(F)(F)F)c2-c2cc3ccccc3o2)c(O)c1	3.2% (inactive)
O=C(OCC1CC(c2ccccn2)=NO1)c1ccc(Br)cc1 (stereo unspecified)	9.31% (inactive)
Fc1ccc(-c2n[nH]c(=S)n2/N=C/c2c[nH]c3ccccc23)cc1	27.9% (inactive)
CCOC(=O)C1=C(c2ccccc2)N(C)C(=O)NC1c1ccc(O)c(OC)c1 (stereo unspecified)	8.42% (inactive)
CCC(=O)N1CCc2cc(Br)cc(S(=O)(=O)NCc3ccco3)c21	0.76% (inactive)

SMILES	inhibition
Oc1ccc(-c2csc(-c3ccccc3)n2)cc1O	35.9% (inactive)
COc1ccc(C(=O)C2(C)N(O)C(C)C(c3cccs3)=[N+]2[O-])cc1 (stereo unspecified)	9.94% (inactive)
Cc1cc([N+](=O)[O-])nn1CCCC(=O)Nc1sc2c(c1C(N)=O)CCC(C)C2 (stereo unspecified)	1.33% (inactive)
COc1ccc(-n2c(C)c3c(OC)cccc(=O)c3c2C)cc1	-2.64% (inactive)
C=CCn1c(COc2ccccc2)nnc1SCC(=O)O	11.9% (inactive)
COc1ccc(Cc2nnc(SCC(=O)NC3CCCC3)o2)cc1	40.2% (inactive)
C/C(=N\NC(=O)CN(c1ccccc1Br)S(C)(=O)=O)c1ccc2c(c1)OCCO2	1.65% (inactive)
Cn1c(SCC(=O)N2CCOCC2)nnc1-c1cccc(NC(=O)c2ccccc2)c1	-2.57% (inactive)
COc1ccccc1CCNC(=O)c1cnccn1	16.6% (inactive)
CCN(C(=O)COC(=O)c1cc(C)n(-c2ccc(F)cc2)c1C)C1CCS(=O)(=O)C1 (stereo unspecified)	2.1% (inactive)
COc1cc(S(=O)(=O)N(Cc2ccccn2)Cc2ccco2)ccc1-n1cnnn1	2% (inactive)
COC(=O)c1cc2oc(C)cc2n1CC(=O)N1CCCc2ccccc21	9.68% (inactive)
CC(C)Cn1c(-c2cccs2)nc2ccccc21	25.7% (inactive)
COC(=O)c1c(NC(=O)C2COc3ccccc3O2)sc2c1CCN(Cc1ccccc1)C2 (stereo unspecified)	25.5% (inactive)
CCN1CCN(Cc2cc(OC)c(OC)cc2[N+](=O)[O-])CC1	12.6% (inactive)
COC(=O)c1cnc(SCc2ccc(C)cc2)n1C	15.2% (inactive)
N#CC1=C(N)Oc2cc(Nc3ccccc3)ccc2C1c1ccncc1 (stereo unspecified)	4.14% (inactive)
OCCNCCOc1ccc(Cl)c(Cl)c1	1.74% (inactive)
CNC(=S)N=Nc1c(O)[nH]c2ccc(C(C)C)cc12	9.53% (inactive)
Cn1cccc1/C=C1/C(=O)NC(=O)N(Cc2ccccc2)C1=O	35.4% (inactive)
Cc1nc2c(ccc3nc(NC(=O)c4ccc5c(c4)OCCO5)sc32)s1	3.48% (inactive)
O=C(Nc1cc2ccccc2oc1=O)c1ccccc1	7.06% (inactive)
CCOC(=O)c1c(NC(=O)CSc2nnc(CNc3ccc(C)cc3C)o2)sc(C)c1C	2.5% (inactive)
CCCN1CCc2[nH]c(=S)[nH]c(=O)c2C1	-2.07% (inactive)

SMILES	inhibition
Cc1[nH]nc2c1C1(C(=O)N(Cc3ccc(Cl)cc3)c3ccccc31)C(C#N)=C(N)O2 (stereo unspecified)	10.5% (inactive)
O=C(O)C1C2C=CC(C2)C1C(=O)NCCCc1ccccc1 (stereo unspecified)	3.67% (inactive)
Cc1oc(-c2cccs2)nc1CSCC(=O)N1CCC2(CC1)OCCO2	2.86% (inactive)
O=c1cc(O)n(-c2ccc(F)cc2)c(=S)[nH]1	-0.2% (inactive)
Cc1ccc(C(=O)n2c(=S)nc3ccccn32)cc1	22.2% (inactive)
C=CCN1C(c2ccccc2)=CS/C1=C(\C#N)c1nnc2n1CCCCC2	34% (inactive)
CC(C)Cn1cnc2c1c(=O)n(CC(=O)Nc1ccc3c(c1)OCO3)c(=O)n2Cc1ccccc1	14.6% (inactive)
CN(C)S(=O)(=O)N1CCN(CC(=O)Nc2cc(Cl)ccc2Cl)CC1	-3.1% (inactive)
COCc1cc(C)nc(OCC(=O)N/N=C/c2ccc(-c3cc([N+](=O)[O-])ccc3C)o2)c1C#N	19% (inactive)
COc1ccc(C(=O)CN2C(=O)NC3(CCCc4ccccc43)C2=O)cc1OC (stereo unspecified)	7.22% (inactive)
COc1cccc(-c2cnc(NCc3cc(Cl)ccc3O)n2C)c1	3.22% (inactive)
O=C(CSc1ncnc2nc[nH]c12)Nc1ccccc1C(F)(F)F	30.5% (inactive)
COC(=O)C1=NN(c2cccc(C)c2)C2C(=O)N(c3ccccc3OC)C(=O)C12 (stereo unspecified)	8.46% (inactive)
Clc1ccc(Nc2nc3cccnc3s2)cc1	7.79% (inactive)
Cc1ccc(Cc2cnc(NC(=O)/C(C#N)=C/c3ccc(-c4ccccc4[N+](=O)[O-])o3)s2)cc1	5.26% (inactive)
Cc1cc2cc(NC(=O)c3ccco3)ccc2[nH]1	-3.69% (inactive)
CCOC(=O)c1c(NC(=O)COC)sc2c1CCCC2	17.5% (inactive)
O=C(c1cccs1)N1CCN=C1SCc1ccccc1	9.69% (inactive)
CCOC(=O)c1sc(=N)n(-c2ccc(OC)cc2)c1C	-1.33% (inactive)
CC(C)CC(=O)n1sc(NC(=O)c2ccccc2)nc1=O	-4.08% (inactive)
CN(C)S(=O)(=O)c1cc(NC(=O)CN2C(=O)NC3(CCCc4ccccc43)C2=O)ccc1Cl (stereo unspecified)	4.67% (inactive)
COc1ccc(-n2c(SCC(=O)NCc3ccco3)nc3c([nH]c4ccccc43)c2=O)cc1	1.34% (inactive)
Cc1c(NC(=O)CN2CC(C)OC(C)C2)c(=O)n(-c2ccccc2)n1C (stereo unspecified)	35.8% (inactive)
